Experimental data reported in patent US20230248766A1, “METHODS OF TREATING OXIDATIVE STRESS TO MODULATE REDOX BALANCE, PREVENTING OXIDATIVE STRESS INDUCED CELL DAMAGE AND DEATH” (Redox Balance, LLC, priority 2019, published 2023).

Legend:
[1] = test system: tomato plants; experiment: Plant growth enhancement by treatment with water-soluble C60; type: in vivo
From the text: Treated plants weighed 2X untreated plants. […] Example 7. […] Treated plants weighed 2× untreated plants.

[2] = test system: seeds; experiment: Seed pre-treatment to enhance germination; type: in vivo; settings: soaking seeds for 1 hour prior to placing in growing medium

polyhydroxy-C60
weight of treated plants relative to untreated plants ([1]; tomato plants after two weeks): 2 X | increases in growth rate ([1]; treatment of clones before initial planting): up to two times | germination [2]: significant enhancement of germination
